Test results published in US7888329B2, “Substituted aryl piperidinylalkynyladenosines as A2AR agonists” (PGxHealth, LLC, priority 2006, dated 2011).
Like-named read-outs stand apart in the source and are kept apart here.

How the values were obtained:
[1] = biological target: T1, human A1 AR (Homo sapiens, UniProt P30542); experiment: Radioligand competition binding with 125I-ABA, membranes of CHO K1 cells stably expressing the receptor; details: Ki derived from IC50, class symbols
T1 construct: expressed in transfected cells; membranes
T1 sequence (P30542 1-326): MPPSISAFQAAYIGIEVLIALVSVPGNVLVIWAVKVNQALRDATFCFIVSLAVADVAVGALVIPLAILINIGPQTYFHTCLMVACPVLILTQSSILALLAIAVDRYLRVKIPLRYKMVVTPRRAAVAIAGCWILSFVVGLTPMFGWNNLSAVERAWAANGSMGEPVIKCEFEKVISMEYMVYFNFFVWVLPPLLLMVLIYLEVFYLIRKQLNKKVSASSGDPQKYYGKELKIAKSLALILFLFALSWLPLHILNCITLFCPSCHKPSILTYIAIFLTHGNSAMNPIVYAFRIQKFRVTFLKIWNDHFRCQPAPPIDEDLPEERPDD

[2] = biological target: T2, recombinant human A2A receptors (Homo sapiens, UniProt P29274); experiment: Radioligand competition binding with 125I-APE or 125I-ZM241385, Sf9 cell membranes; details: 125I-APE or 125I-ZM241385, Sf9 membranes; class symbols
T2 construct: expressed in transfected cells; host or cells: Sf9 insect cells infected with virus; membranes
T2 sequence (P29274 whole entry): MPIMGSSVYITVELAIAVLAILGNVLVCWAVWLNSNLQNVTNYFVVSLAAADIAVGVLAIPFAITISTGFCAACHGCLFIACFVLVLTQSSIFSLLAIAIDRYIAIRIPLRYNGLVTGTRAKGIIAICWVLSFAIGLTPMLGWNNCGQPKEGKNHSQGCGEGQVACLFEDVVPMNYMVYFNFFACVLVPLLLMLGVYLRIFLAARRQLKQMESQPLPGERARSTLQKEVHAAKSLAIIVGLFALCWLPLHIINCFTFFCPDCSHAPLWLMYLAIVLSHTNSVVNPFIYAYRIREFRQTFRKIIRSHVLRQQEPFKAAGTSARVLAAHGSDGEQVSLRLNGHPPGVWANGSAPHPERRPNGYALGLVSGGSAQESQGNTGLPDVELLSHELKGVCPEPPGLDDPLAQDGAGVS
Summary of the method: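 Membranes (5 μg for A2A; 25 μg for A1) incubated with radioligand at room temperature, 3 h for agonists or 2 h for antagonists, in HE buffer with 1 U/mL adenosine deaminase and 5 mM MgCl2, ± 50 μM GTPγS. Assays ended by filtration; nonspecific binding defined with 50 μM NECA.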

[3] = biological target: T3, human A3 AR (Homo sapiens, UniProt P0DMS8); experiment: Radioligand competition binding with 125I-ABA, membranes of HEK 293 cells stably expressing the receptor; details: Ki derived from IC50, class symbols
T3 construct: expressed in transfected cells; membranes
T3 sequence (P0DMS8 1-318): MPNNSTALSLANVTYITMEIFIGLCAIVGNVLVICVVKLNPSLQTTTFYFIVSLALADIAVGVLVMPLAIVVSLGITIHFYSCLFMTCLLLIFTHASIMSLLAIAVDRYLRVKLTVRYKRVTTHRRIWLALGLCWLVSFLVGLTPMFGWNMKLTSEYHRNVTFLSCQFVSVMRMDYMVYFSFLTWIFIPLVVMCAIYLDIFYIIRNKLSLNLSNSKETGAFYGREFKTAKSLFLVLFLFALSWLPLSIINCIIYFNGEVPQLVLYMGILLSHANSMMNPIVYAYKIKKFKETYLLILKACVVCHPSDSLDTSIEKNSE
Summary of the method: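 Triplicate binding with 25 μg membrane protein and 0.5-1 nM agonist radioligand in HE buffer with 1 U/mL adenosine deaminase and 5 mM MgCl2, ±50 μM GTPγS, 3 h at room temperature, then filtration. Nonspecific binding with 50 μM NECA; Ki from IC50 corrected for radioligand and competitor depletion.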

[4] = test system: Purified human neutrophils; experiment: Luminol enhanced chemiluminescence (neutrophil oxidative activity), fMLP stimulated; format: cell-based
[5] = Homo sapiens, Neutrophil, read-out: Functional
[6] = Homo sapiens, Neutrophil, read-out: Functional (nM)
[7] = EC50 of peak chemiluminescence, human PMN, rolipram 100 nM, fMLP, three donors, class symbols, read-out: Functional

SMILES	Ki [1] [nM]	Ki [2] [nM]	Ki [3] [nM]	EC50 [4, 5] [nM]	EC50 [4, 6] [nM]	EC50 [4, 7] [nM]
CCNC(=O)[C@H]1O[C@@H](n2cnc3c(N)nc(C#CCC4CCN(C(=O)OCc5ccc([N+](=O)[O-])cc5)CC4)nc32)[C@@H](O)C1O (stereo partly drawn) [Compound 33, N-Ethyl 2-{3-[1-(4-nitrobenzyloxycarbonyl)-4-piperidinyl]-1-propyn-1-yl}adenosine-5′-uronamide]	< 100	< 1	< 10	< 10		
CCNC(=O)[C@H]1O[C@@H](n2cnc3c(N)nc(C#CCC4CCN(C(=O)Oc5ccc(N)cc5)CC4)nc32)[C@@H](O)C1O (stereo partly drawn) [Compound 34, N-Ethyl 2-{3-[1-(4-aminophenoxycarbonyl)-4-piperidinyl]-1-propyn-1-yl}adenosine-5′-uronamide]	< 100	< 10	< 100	< 1		
Nc1nc(C#CCC2CCN(C(=O)Oc3ccccc3Cl)CC2)nc2c1ncn2[C@@H]1O[C@H](CO)[C@@H](O)[C@H]1O [Compound 35, 2-{3-[1-((2-Chloro)phenoxycarbanoyl)piperidin-4-yl]propyn-1-yl}adenosine]	< 100	< 1	< 100	< 10		
COc1ccccc1OC(=O)N1CCC(CC#Cc2nc(N)c3ncn([C@@H]4O[C@H](CO)[C@@H](O)[C@H]4O)c3n2)CC1 [Compound 36, 2-{3-[1-((2-Methoxy)phenoxycarbanoyl)piperidin-4-yl]propyn-1-yl}adenosine]	< 100	< 1	< 100	< 10		
CCNC(=O)[C@H]1O[C@@H](n2cnc3c(N)nc(CCCC4CCN(C(=O)Oc5ccc(NO)cc5)CC4)nc32)[C@@H](O)C1O (stereo partly drawn) [Compound 37]	< 100	< 1	< 100		< 10	
Nc1nc(CCCC2CCN(C(=O)Oc3ccccc3)CC2)nc2c1ncn2[C@@H]1O[C@H](C(=O)NC2CC2)C(O)[C@@H]1O (stereo partly drawn) [Compound 38]	> 100	< 100	> 100		< 100	
Cc1ccc(OC(=O)N2CCC(CCCc3nc(N)c4ncn([C@@H]5O[C@H](C(=O)NC6CC6)C(O)[C@@H]5O)c4n3)CC2)cc1 (stereo partly drawn) [Compound 39]	> 100	< 100	> 100		< 100	
N=C(Oc1ccc(F)cc1)N1CCC(CC#Cc2nc(N)c3ncn([C@@H]4O[C@H](C(=O)NC5CC5)[C@@H](O)[C@H]4O)c3n2)CC1 [Compound 41, N-Cyclopropyl 2-{3-[1-(4-fluorophenyloxycarboxymidyl)-4-piperidinyl]-1-propyn-1-yl}adenosine-5′-uronamide]	< 100	< 10	> 100			< 10
N=C(Oc1ccc(Cl)cc1)N1CCC(CC#Cc2nc(N)c3ncn([C@@H]4O[C@H](C(=O)NC5CC5)[C@@H](O)[C@H]4O)c3n2)CC1 [Compound 42, N-Cyclopropyl 2-{3-[1-(4-chlorophenyloxycarboxymidyl)-4-piperidinyl]-1-propyn-1-yl}adenosine-5′-uronamide]	> 100	< 10	> 100			> 100
Nc1nc(C#CCC2CCN(C(=O)Nc3cccc(Cl)c3)CC2)nc2c1ncn2[C@@H]1O[C@H](C(=O)NC2CC2)C(O)[C@@H]1O (stereo partly drawn) [Compound 43, N-Cyclopropyl 2-{3-[1-(3-chlorophenyloxycarboxymidyl)-4-piperidinyl]-1-propyn-1-yl}adenosine-5′-uronamide]	< 100	< 10	> 100	< 100		
Nc1nc(C#CCC2CCN(C(=O)Nc3ccc(F)cc3)CC2)nc2c1ncn2[C@@H]1O[C@H](CO)C(O)[C@@H]1O (stereo partly drawn) [Compound 44]	< 100	< 10	< 100	> 100		
Nc1nc(C#CCC2CCN(C(=O)Nc3ccc(Cl)cc3)CC2)nc2c1ncn2[C@@H]1O[C@H](CO)C(O)[C@@H]1O (stereo partly drawn) [Compound 45]	< 100	< 10	< 100	> 100		
Nc1nc(C#CCC2CCN(C(=O)Nc3cccc(Cl)c3)CC2)nc2c1ncn2[C@@H]1O[C@H](CO)C(O)[C@@H]1O (stereo partly drawn) [Compound 46]	< 100	< 10	< 100	< 100		
Cc1ccc(OC(=O)N2CCC(CC#Cc3nc(N)c4ncn([C@@H]5O[C@H](C(=O)NC6CC6)[C@@H](O)[C@H]5O)c4n3)CC2)cc1C [Compound 47, N-Cyclopropyl 2-{3-[1-(3,4-dimethylphenoxycarbonyl)-4-piperidinyl]-1-propyn-1-yl}adenosine-5′-uronamide]	< 100	< 1	< 100			< 1
CCNC(=O)[C@H]1O[C@@H](n2cnc3c(N)nc(C#CCC4CCN(C(=O)Oc5ccc(Cl)c(Cl)c5)CC4)nc32)[C@@H](O)C1O (stereo partly drawn) [Compound 49, N-Ethyl 2-{3-[1-(3,4-dichlorophenoxycarbonyl)-4-piperidinyl]-1-propyn-1-yl}adenosine-5′-uronamide]	< 100	< 1	< 10	< 1		
CCNC(=O)[C@H]1O[C@@H](n2cnc3c(N)nc(C#CCC4CCN(C(=O)Oc5ccc(F)c(F)c5)CC4)nc32)[C@@H](O)C1O (stereo partly drawn) [Compound 50, N-Ethyl 2-{3-[1-(3,4-difluorophenoxycarbonyl)-4-piperidinyl]-1-propyn-1-yl}adenosine-5′-uronamide]	< 100	< 1	< 100	< 1		
Nc1nc(C#CCC2CCN(C(=O)Oc3ccc(Cl)c(Cl)c3)CC2)nc2c1ncn2[C@@H]1O[C@H](C(=O)NC2CC2)C(O)[C@@H]1O (stereo partly drawn) [Compound 51, N-Cyclopropyl 2-{3-[1-(3,4-chlorophenoxycarbonyl)-4-piperidinyl]-1-propyn-1-yl}adenosine-5′-uronamide]	< 100	< 1	< 100	< 1		
Nc1nc(C#CCC2CCN(C(=O)Oc3ccc(F)c(F)c3)CC2)nc2c1ncn2[C@@H]1O[C@H](C(=O)NC2CC2)C(O)[C@@H]1O (stereo partly drawn) [Compound 52, N-Cyclopropyl 2-{3-[1-(3,4-fluorophenoxycarbonyl)-4-piperidinyl]-1-propyn-1-yl}adenosine-5′-uronamide]	< 100	< 1	< 100	< 1		
Cc1ccc(OC(=O)N2CCC(CC#Cc3nc(N)c4ncn([C@@H]5O[C@H](CO)[C@@H](O)[C@H]5O)c4n3)CC2)cc1C [Compound 53, 2-{3-[1-((3,4-Dimethyl)phenoxycarbanoyl)piperidin-4-yl]propyn-1-yl}adenosine]	< 100	< 1	< 100	< 10		
Nc1nc(C#CCC2CCN(C(=O)Oc3ccc(F)c(F)c3)CC2)nc2c1ncn2[C@@H]1O[C@H](CO)[C@@H](O)[C@H]1O [Compound 54, 2-{3-[1-((3,4-Difluoro)phenoxycarbanoyl)piperidin-4-yl]propyn-1-yl}adenosine]	< 100	< 1	< 100	< 10		
Nc1nc(C#CCC2CCN(C(=O)Oc3ccc(Cl)c(Cl)c3)CC2)nc2c1ncn2[C@@H]1O[C@H](CO)C(O)[C@@H]1O (stereo partly drawn) [Compound 55, 2-{3-[1-((3,4-Chloro)phenoxycarbanoyl)piperidin-4-yl]propyn-1-yl}adenosine]	< 100	< 1	< 10	< 10		
